Tested on: C6 glioblastoma
Test: In vivo efficacy in glioma model, first series (treatment started 24 hrs after inoculation)
Parameters: species or system Mus musculus nude mice
Experimental: The aim of this study was to test whether Compound 1 administered by the i.p. route prevents or delays tumor growth in C6 glioblastoma cell-bearing mice, and to determine an effective dosage regimen.
Animal experiments were performed according to ethical guidelines of animal experimentation (Charte du comité d'éthique du CNRS, juillet 2003) and the English guidelines for the welfare of animals in experimental neoplasia (WORKMAN, P., […], P., BALKWILL, F., et al. (1998). United Kingdom Coordinating Committee on Cancer Research (UKCCCR) Guidelines for the welfare of animals in experimental neoplasia (Second Edition, July 1997; British Journal of Cancer, 77:1-10). Any dead or apparently sick mice were promptly removed and replaced with healthy mice. Sick mice were euthanized upon removal from the cage. Animals were maintained in rooms under controlled conditions of temperature (23±2° C.), humidity (45±5%), photoperiodicity (12 hrs light/12 hrs dark) and air exchange. Animals were housed in polycarbonate cages (5/single cage) that were equipped to provide food and water. Animal bedding consisted of sterile wood shavings that were replaced every other day. Food was provided ad libitum, being placed in the metal lid on the top of the cage. Autoclaved tap water was provided ad libitum. Water bottles were equipped with rubber stoppers and sipper tubes. Water bottles were cleaned, sterilized and replaced once a week. Two different numbers engraved on two earrings identified the animals. Each cage was labeled with a specific code.
Tumor Cell Line: The C6 cell line was cloned from a rat glial tumor induced by N-nitrosomethyurea (NMU) according to Premont et al. (Premont J, Benda P, Jard S., [3H] norepinephrine binding by rat glial cells in culture. Lack of correlation between binding and adenylate cyclase activation. Biochim Biophys Acta. 1975 Feb. 13;381(2):368-76.) after series of alternate culture and animal passages. Cells were grown as adherent monolayers at 37° C. in a humidified atmosphere (5% CO2, 95% air). The culture medium was DMEM supplemented with 2 mM L-glutamine and 10% fetal bovine serum. For experimental use, tumor cells were detached from the culture flask by a 10 min treatment with trypsin-versen. The cells were counted in a hemocytometer and their viability assessed by 0.25% trypan blue exclusion.
Preparation of the Test Article: For the test article, the following procedure was followed for reconstitution (performed immediately preceding injection). The vehicle consisted of a mixture of benzyl alcohol (1.5%), ethanol (8.5%), propylene glycol (27%), PEG 400 (27%), dimethylacetamide (6%) and water (30%). The vehicle solution was first vortexed in order to obtain a homogeneous liquid. 0.6 mL of the vortexed vehicle solution was added to each vial containing the test article (Compound 1). Vials were mixed thoroughly by vortexing for 1 minute and inverted and shaken vigorously. Vials were mixed again prior to injection into each animal.
Animal Inoculation with tumor cells: Experiment started at day 0 (D0). On D0, mice received a superficial intramuscular injection of C6 tumor cells (5×10^5 cells) in 0.1 mL of DMEM complete medium into the upper right posterior leg.
In a first series of experiments, treatment started 24 hrs following inoculation of C6 cells. On the day of the treatment, each mouse was slowly injected with 100 μL of test or control articles by the i.p. route. For all groups, treatment was performed until the tumor volume of the saline-treated mice (group 1) reached approximately 3 cm^3 (around day 16). Mice of group 1 were treated daily with a saline isosmotic solution for 16 days. Mice of group 2 were treated daily with the vehicle solution for 16 days. Mice of group 3 were treated daily with 10 mg/kg of Compound 1 for 16 days. Mice of group 4 were treated every two days with 30 mg/kg of Compound 1 and received 8 treatments. […]

CC(C)=CCC/C(C)=C/CC/C(C)=C/CN1C(=O)c2cccc(O)c2Nc2c(O)cc(O)cc21 [Compound 1, 10-farnesyl-4,6,8-trihydroxy-5,10-dihydrodibenzo[b,e][1,4]diazepin-11-one]
Tumor volume (mm^3) (mean ± SEM) (10 mg/kg i.p., Q1 × 16): 1,220.4 ± 283.46 mm^3 | % Inhibition (10 mg/kg i.p., Q1 × 16, vs saline): 59.4% | Tumor volume (mm^3) (mean ± SEM) (30 mg/kg i.p., Q2 × 8): 1,236.9 ± 233.99 mm^3 | % Inhibition (30 mg/kg i.p., Q2 × 8, vs saline): 58.8% | Tumor volume (mm^3) (mean ± SEM) (30 mg/kg i.p., Q3 × 6): 1,184.1 ± 221.45 mm^3 | % Inhibition (30 mg/kg i.p., Q3 × 6, vs saline): 60.6% | mean value of the tumor volume of all treated groups (10-30 mg/kg i.p., compared to the saline group): significantly reduced
